The source of these data is US9267949B2, “Alkylamino BODIPY dyes as selective fluorescent probes for proteins and mouse embryonic stem cells” (National University of Singapore, priority 2011, dated 2016).

Data set [1] in a line: Quantum yield measurements. Type of data set: physicochemical. Conditions: referred to Rhodamine B in EtOH, excitation 510 nm, emission integrated 540-800 nm. Here is the method:
Quantum yields were calculated by measuring the integrated emission area of the fluorescent spectra, and referring them to the area measured for Rhodamine B in EtOH after excitation at 510 nm (ΦRho-B=0.70). Quantum yields for the BDM products were then calculated using equation below, where F represents the area of fluorescent emission, n is reflective index of the solvent, and Abs is absorbance at excitation wavelength selected for standards and samples. Emission was integrated from 540 nm to 800 nm.

Data set [2] in a line: Spectroscopic properties of the BDM library (absorbance and emission maxima). Type of data set: physicochemical.

Consider `CC1=CC(/C=C/c2ccc(OC(C)(C)C)cc2)=[N+]2C1=C(CCN)c1cccn1[B-]2(F)F` [BDM-75], for which the “φ (quantum yield)” value in data set [1] turned out to be 0.53. In addition, in data set [2], the “λmax (ABS)” value is recorded as 560 nm and the “λmax (EM)” value was determined as 585 nm.
On the same counts, the results for `CCCc1ccc(/C=C/C2=[N+]3C(=C(CCN)c4cccn4[B-]3(F)F)C(C)=C2)cc1` [BDM-77] are 0.54, 557 nm and 569 nm.
For `CC1=CC(/C=C/c2ccc(N(C)C)cc2[N+](=O)[O-])=[N+]2C1=C(CCN)c1cccn1[B-]2(F)F` [BDM-78], the “φ (quantum yield)” value in data set [1] came out at 0.01. In data set [2], the “λmax (ABS)” value turned out to be 591 nm.
`COc1cc(OC)c(/C=C/C2=[N+]3C(=C(CCN)c4cccn4[B-]3(F)F)C(C)=C2)c(OC)c1` [BDM-82]: the “φ (quantum yield)” value in data set [1] is reported as 0.40. Moreover, in data set [2], the “λmax (ABS)” value amounted to 579 nm and the “λmax (EM)” value stood at 621 nm.
The corresponding values for `CC1=CC(/C=C/c2ccc(-c3ccccn3)cc2)=[N+]2C1=C(CCN)c1cccn1[B-]2(F)F` [BDM-88] are 0.21, 565 nm and 576 nm.
The corresponding values for `CC1=CC(/C=C/c2ccc3c4c(cccc24)CC3)=[N+]2C1=C(CCN)c1cccn1[B-]2(F)F` [BDM-89] are 0.30, 576 nm and 612 nm.
Turning to `CC1=CC(/C=C/c2ccc(OCc3ccccc3)cc2)=[N+]2C1=C(CCN)c1cccn1[B-]2(F)F` [BDM-90], the “φ (quantum yield)” value in data set [1] came out at 0.26. In addition, in data set [2], the “λmax (ABS)” value is reported as 565 nm and the “λmax (EM)” value is 582 nm.
For `CC1=CC(/C=C/c2ccc(N(C)CCO)cc2)=[N+]2C1=C(CCN)c1cccn1[B-]2(F)F` [BDM-91], the “φ (quantum yield)” value in data set [1] was 0.02. In addition, in data set [2], the “λmax (ABS)” value was 614 nm and the “λmax (EM)” value was 699 nm.
In the case of `COc1ccc2[nH]cc(/C=C/C3=[N+]4C(=C(CCN)c5cccn5[B-]4(F)F)C(C)=C3)c2c1` [BDM-93], in data set [1], the “φ (quantum yield)” value is reported as 0.06. Moreover, in data set [2], the “λmax (ABS)” value worked out at 592 nm and the “λmax (EM)” value is listed as 653 nm.
On the same counts, the results for `COc1cccc(/C=C/C2=[N+]3C(=C(CCN)c4cccn4[B-]3(F)F)C(C)=C2)c1O` [BDM-97] are 0.04, 561 nm and 572 nm.
The corresponding values for `CC1=CC(/C=C/c2ccc(Br)s2)=[N+]2C1=C(CCN)c1cccn1[B-]2(F)F` [BDM-100] are 0.43, 571 nm and 582 nm.
The corresponding values for `CC1=CC(/C=C/c2ccc(Oc3ccccc3)cc2)=[N+]2C1=C(CCN)c1cccn1[B-]2(F)F` [BDM-101] are 0.66, 559 nm and 576 nm.
Turning to `CC1=CC(/C=C/c2cccc(O)c2)=[N+]2C1=C(CCN)c1cccn1[B-]2(F)F` [BDM-105], the “φ (quantum yield)” value in data set [1] came to 0.18. In data set [2], the “λmax (ABS)” value amounted to 556 nm and the “λmax (EM)” value stood at 567 nm.
Regarding `CCN(CC)c1ccc(/C=C/C2=[N+]3C(=C(CCN)c4cccn4[B-]3(F)F)C(C)=C2)cc1` [BDM-107], in data set [1], the “φ (quantum yield)” value amounted to 0.05. In data set [2], the “λmax (ABS)” value amounted to 617 nm and the “λmax (EM)” value worked out at 681 nm.
On the same counts, the results for `CC1=CC(/C=C/c2c(C)cc(C)cc2C)=[N+]2C1=C(CCN)c1cccn1[B-]2(F)F` [BDM-108] are 0.35, 549 nm and 573 nm.
The corresponding values for `COc1ccc(/C=C/C2=[N+]3C(=C(CCN)c4cccn4[B-]3(F)F)C(C)=C2)cc1` [BDM-110] are 0.85, 563 nm and 583 nm.
The corresponding values for `CC(=O)Nc1ccc(/C=C/C2=[N+]3C(=C(CCN)c4cccn4[B-]3(F)F)C(C)=C2)cc1` [BDM-111] are 0.79, 566 nm and 589 nm.
Regarding `COc1ccc(/C=C/C2=[N+]3C(=C(CCN)c4cccn4[B-]3(F)F)C(C)=C2)cc1O` [BDM-132], the “φ (quantum yield)” value in data set [1] is 0.05. Further, in data set [2], the “λmax (ABS)” value amounted to 568 nm and the “λmax (EM)” value worked out at 594 nm.
Regarding `CC1=CC(/C=C/c2ccc(C)o2)=[N+]2C1=C(CCN)c1cccn1[B-]2(F)F` [BDM-135], in data set [1], the “φ (quantum yield)” value came to 0.10. Moreover, in data set [2], the “λmax (ABS)” value came to 577 nm and the “λmax (EM)” value was found to be 601 nm.
The corresponding values for `CC1=CC(/C=C/c2ccc3ccccc3c2)=[N+]2C1=C(CCN)c1cccn1[B-]2(F)F` [BDM-137] are 0.28, 563 nm and 575 nm.
On the same counts, the results for `CC1=CC(/C=C/c2ccc3c(c2)OCO3)=[N+]2C1=C(CCN)c1cccn1[B-]2(F)F` [BDM-139] are 0.55, 564 nm and 584 nm.
On the same counts, the results for `CCCOc1ccc(/C=C/C2=[N+]3C(=C(CCN)c4cccn4[B-]3(F)F)C(C)=C2)cc1` [BDM-140] are 0.57, 564 nm and 585 nm.
Consider `CC1=CC(/C=C/c2ccccc2C)=[N+]2C1=C(CCN)c1cccn1[B-]2(F)F` [BDM-143], for which, in data set [1], the “φ (quantum yield)” value turned out to be 0.42. Moreover, in data set [2], the “λmax (ABS)” value is listed as 554 nm and the “λmax (EM)” value turned out to be 566 nm.
On the same counts, the results for `COc1cc(OC)c(OC)cc1/C=C/C1=[N+]2C(=C(CCN)c3cccn3[B-]2(F)F)C(C)=C1` [BDM-144] are 0.05, 578 nm and 612 nm.
With `CC1=CC(/C=C/c2ccc(OCCCN(C)C)cc2)=[N+]2C1=C(CCN)c1cccn1[B-]2(F)F` [BDM-163], in data set [1], the “φ (quantum yield)” value is 0.41. In data set [2], the “λmax (ABS)” value amounted to 566 nm and the “λmax (EM)” value worked out at 586 nm.
The corresponding values for `CC1=CC(/C=C/c2ccc(C(C)(C)C)cc2)=[N+]2C1=C(CCN)c1cccn1[B-]2(F)F` [BDM-177] are 0.78, 556 nm and 567 nm.
The corresponding values for `COc1ccc(Oc2ccc(/C=C/C3=[N+]4C(=C(CCN)c5cccn5[B-]4(F)F)C(C)=C3)cc2)cc1` [BDM-178] are 0.37, 561 nm and 577 nm.
On to `COC(=O)c1ccc(-c2ccc(/C=C/C3=[N+]4C(=C(CCN)c5cccn5[B-]4(F)F)C(C)=C3)cc2)cc1` [BDM-179], for which, in data set [1], the “φ (quantum yield)” value is recorded as 0.26. In data set [2], the “λmax (ABS)” value is recorded as 566 nm and the “λmax (EM)” value was found to be 581 nm.
The corresponding values for `COc1cccc(/C=C/C2=[N+]3C(=C(CCN)c4cccn4[B-]3(F)F)C(C)=C2)c1` [BDM-186] are 0.97, 553 nm and 564 nm.
On the same counts, the results for `COc1ccc(/C=C/C2=[N+]3C(=C(CCN)c4cccn4[B-]3(F)F)C(C)=C2)c(O)c1` [BDM-192] are 0.20, 574 nm and 605 nm.
For the molecule `COc1ccc(-c2ccc(/C=C/C3=[N+]4C(=C(CCN)c5cccn5[B-]4(F)F)C(C)=C3)o2)cc1Cl` [BDM-195], the “φ (quantum yield)” value in data set [1] was found to be 0.03. For the same molecule, in data set [2], the “λmax (ABS)” value amounted to 600 nm and the “λmax (EM)” value was 663 nm.
The corresponding values for `COc1ccccc1/C=C/C1=[N+]2C(=C(CCN)c3cccn3[B-]2(F)F)C(C)=C1` [BDM-198] are 0.59, 559 nm and 574 nm.
On the same counts, the results for `CC1=CC(/C=C/c2ccc(-c3cncnc3)cc2)=[N+]2C1=C(CCN)c1cccn1[B-]2(F)F` [BDM-199] are 0.18, 562 nm and 574 nm.
On the same counts, the results for `C=CCOc1ccccc1/C=C/C1=[N+]2C(=C(CCN)c3cccn3[B-]2(F)F)C(C)=C1` [BDM-202] are 0.52, 559 nm and 575 nm.
Regarding `CC1=CC(/C=C/c2ccccc2Cl)=[N+]2C1=C(CCN)c1cccn1[B-]2(F)F` [BDM-207], the “φ (quantum yield)” value in data set [1] is reported as 0.24. Besides, in data set [2], the “λmax (ABS)” value is on record as 553 nm and the “λmax (EM)” value is given as 566 nm.
With `CC1=CC(/C=C/c2ccc(C)cc2)=[N+]2C1=C(CCN)c1cccn1[B-]2(F)F` [BDM-208], the “φ (quantum yield)” value in data set [1] is reported as 0.27. Moreover, in data set [2], the “λmax (ABS)” value is reported as 558 nm and the “λmax (EM)” value is on record as 572 nm.
On the same counts, the results for `COc1cc(/C=C/C2=[N+]3C(=C(CCN)c4cccn4[B-]3(F)F)C(C)=C2)cc(OC)c1` [BDM-209] are 0.38, 555 nm and 567 nm.
The corresponding values for `CC1=CC(/C=C/c2ccccc2OCc2ccccc2)=[N+]2C1=C(CCN)c1cccn1[B-]2(F)F` [BDM-218] are 0.37, 559 nm and 574 nm.
The corresponding values for `COc1cc(Br)cc(/C=C/C2=[N+]3C(=C(CCN)c4cccn4[B-]3(F)F)C(C)=C2)c1OC` [BDM-228] are 0.24, 557 nm and 567 nm.
Turning to `CC1=CC(/C=C/c2cccc3c2OCO3)=[N+]2C1=C(CCN)c1cccn1[B-]2(F)F` [BDM-231], in data set [1], the “φ (quantum yield)” value is listed as 0.17. Besides, in data set [2], the “λmax (ABS)” value is listed as 558 nm and the “λmax (EM)” value is on record as 568 nm.
On the same counts, the results for `CC1=CC(/C=C/c2ccc(C)s2)=[N+]2C1=C(CCN)c1cccn1[B-]2(F)F` [BDM-236] are 0.22, 574 nm and 594 nm.
